# In patent publication US20080015237A1 (ASTRAZENECA AB, priority 2006, published 2008):
# Biological target: human Kv1.5 channel (Homo sapiens, UniProt P22460)
# Experiment: Test A: Rb+ efflux assay
# Format: cell-based
# Conditions: CHO cells stably transfected with cDNA for human Kv1.5
# Procedure: This assay identifies compounds that block the human Kv1.5 channel potassium channel heterologously expressed in Chinese Hamster Ovary (CHO) cells by means of Rb+ ion efflux using Flame Atomic Absorption Spectroscopy. For experimental studies, CHO cells stably transfected with cDNA for human Kv1.5 were grown as confluent layers in Falcon, 384-well tissue culture-treated black-walled clear-bottomed plates and the plates were incubated overnight at 37° C. in a cell culture incubator.
# After incubating overnight the cell plates were washed and a buffer containing Rb+ ions were added to the cell plates. The plates were then incubated for another 3-4 hours in a CO2-incubator (37° C.). Following this incubation period plates were washed, compounds were added and subsequently a buffer containing elevated K+ concentrations were added in order to activate the Kv1.5 channel. Following a short incubation time, aliquots of the supernatants were transferred to supernatant plates for subsequent determination of the Rb+ content using Atomic Absorption Spectrometry (ICR8000 instrument, Aurora Biomed Inc.).
# human Kv1.5 channel, sequence (P22460 whole entry): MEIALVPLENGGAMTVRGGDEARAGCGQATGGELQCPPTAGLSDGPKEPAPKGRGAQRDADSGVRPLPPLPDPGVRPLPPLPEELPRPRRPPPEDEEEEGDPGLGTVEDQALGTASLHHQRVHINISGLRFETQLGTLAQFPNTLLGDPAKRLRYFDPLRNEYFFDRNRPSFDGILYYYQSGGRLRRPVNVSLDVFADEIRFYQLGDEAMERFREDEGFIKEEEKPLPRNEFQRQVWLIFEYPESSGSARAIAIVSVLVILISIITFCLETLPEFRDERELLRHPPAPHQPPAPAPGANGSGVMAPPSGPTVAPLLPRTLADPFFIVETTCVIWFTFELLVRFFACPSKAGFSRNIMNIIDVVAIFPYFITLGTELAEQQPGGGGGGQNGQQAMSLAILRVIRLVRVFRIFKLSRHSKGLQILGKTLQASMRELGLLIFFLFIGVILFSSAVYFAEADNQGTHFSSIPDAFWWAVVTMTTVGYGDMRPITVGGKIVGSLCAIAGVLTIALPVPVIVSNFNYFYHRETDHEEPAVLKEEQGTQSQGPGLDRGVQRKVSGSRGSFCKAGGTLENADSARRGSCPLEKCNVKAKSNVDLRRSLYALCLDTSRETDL
row,SMILES,IC50
1,CC(C)(c1ccccc1)N1C(=O)c2ccccc2C1C(=O)NCc1ccccc1 (centres unmarked) [N-benzyl-2-(1-methyl-1-phenylethyl)-3-oxoisoindoline-1-carboxamide],1700 nM
2,O=C(NCc1ccccc1)C1c2ccccc2C(=O)N1Cc1ccccc1Br (centres unmarked) [N-benzyl-2-(2-bromobenzyl)-3-oxoisoindoline-1-carboxamide],2500 nM
3,O=C(NCc1ccccc1)C1c2ccccc2C(=O)N1CCC1=CCCCC1 (centres unmarked) [N-benzyl-2-(2-cyclohex-1-en-1-ylethyl)-3-oxoisoindoline-1-carboxamide],1800 nM
4,O=C(NCc1ccccc1)C1c2ccccc2C(=O)N1Cc1ccccc1-c1ccccc1 (centres unmarked) [N-benzyl-2-(biphenyl-2-ylmethyl)-3-oxoisoindoline-1-carboxamide],1000 nM
5,O=C(NCc1ccccc1)C1c2cc(F)ccc2C(=O)N1Cc1ccccc1-c1ccccc1 (centres unmarked) [N-benzyl-2-(biphenyl-2-ylmethyl)-6-fluoro-3-oxoisoindoline-1-carboxamide],1000 nM
6,CCN(Cc1ccccc1)C(=O)C1c2ccccc2C(=O)N1CCc1ccc(Cl)cc1 (centres unmarked) [N-benzyl-2-[2-(4-chlorophenyl)ethyl]-N-ethyl-3-oxoisoindoline-1-carboxamide],930 nM
7,CN(Cc1ccccc1)C(=O)C1c2ccccc2C(=O)N1CCc1ccc(Cl)cc1 (centres unmarked) [N-benzyl-2-[2-(4-chlorophenyl)ethyl]-N-methyl-3-oxoisoindoline-1-carboxamide],890 nM
8,CC(c1ccccc1)N1C(=O)c2ccccc2C1C(=O)NCc1ccccc1 (centres unmarked) [N-benzyl-3-oxo-2-(1-phenylethyl)isoindoline-1-carboxamide],6000 nM
9,O=C(NCc1ccccc1)C1c2ccccc2C(=O)N1Cc1cc(-c2ccccc2)no1 (centres unmarked) [N-benzyl-3-oxo-2-[(3-phenylisoxazol-5-yl)methyl]isoindoline-1-carboxamide],1000 nM
10,C[C@H](c1ccccc1)N1C(=O)c2cc(Br)ccc2C1C(=O)NCc1ccccc1 (stereo partly drawn) [N-benzyl-5-bromo-3-oxo-2-[(1R)-1-phenylethyl]isoindoline-1-carboxamide],2100 nM
11,C[C@@H](c1ccccc1)N1C(=O)c2ccc(Cl)cc2C1C(=O)NCc1ccccc1 (stereo partly drawn) [N-benzyl-6-chloro-3-oxo-2-[(1S)-1-phenylethyl]isoindoline-1-carboxamide],2200 nM
12,O=C(NCc1ccccc1)C1c2cc(F)ccc2C(=O)N1Cc1ccccc1C(F)(F)F (centres unmarked) [N-benzyl-6-fluoro-3-oxo-2-[2-(trifluoromethyl)benzyl]isoindoline-1-carboxamide],1400 nM
13,C[C@H](c1ccccc1)N1C(=O)c2ccc(F)cc2C1C(=O)NCc1ccccc1 (stereo partly drawn) [N-benzyl-6-fluoro-3-oxo-2-[(1R)-1-phenylethyl]isoindoline-1-carboxamide],1300 nM

# Now those with a lower IC50, led by results:
row,IC50,SMILES
1,420 nM,O=C(NCc1ccccc1)C1c2cc(Cl)ccc2C(=O)N1Cc1ccccc1-c1ccccc1 (centres unmarked) [N-benzyl-2-(biphenyl-2-ylmethyl)-6-chloro-3-oxoisoindoline-1-carboxamide]
2,560 nM,O=C(NCc1ccccc1)C1c2ccccc2C(=O)N1CCc1ccc(Cl)cc1 (centres unmarked) [N-benzyl-2-[2-(4-chlorophenyl)ethyl]-3-oxoisoindoline-1-carboxamide]
3,510 nM,CC(CN1C(=O)c2ccccc2C1C(=O)NCc1ccccc1)c1ccc(Cl)cc1 (centres unmarked) [N-benzyl-2-[2-(4-chlorophenyl)propyl]-3-oxoisoindoline-1-carboxamide]
4,610 nM,"COc1ccc2c(c1OC)C(=O)N(CC(C)c1ccc(Cl)cc1)C2C(=O)NCc1ccccc1 (centres unmarked) [N-benzyl-2-[2-(4-chlorophenyl)propyl]-4,5-dimethoxy-3-oxoisoindoline-1-carboxamide]"
5,740 nM,"COc1cc2c(cc1OC)C(C(=O)NCc1ccccc1)N(CC(C)c1ccc(Cl)cc1)C2=O (centres unmarked) [N-benzyl-2-[2-(4-chlorophenyl)propyl]-5,6-dimethoxy-3-oxoisoindoline-1-carboxamide]"
6,710 nM,COc1ccc2c(c1)C(=O)N(CC(C)c1ccc(Cl)cc1)C2C(=O)NCc1ccccc1 (centres unmarked) [N-benzyl-2-[2-(4-chlorophenyl)propyl]-5-methoxy-3-oxoisoindoline-1-carboxamide]
7,400 nM,CCC(c1ccccc1)N1C(=O)c2ccccc2C1C(=O)NCc1ccccc1 (centres unmarked) [N-benzyl-3-oxo-2-(1-phenylpropyl)isoindoline-1-carboxamide]
8,210 nM,C[C@H](c1ccccc1)N1C(=O)c2ccc(Br)cc2C1C(=O)NCc1ccccc1 (stereo partly drawn) [N-benzyl-6-bromo-3-oxo-2-[(1R)-1-phenylethyl]isoindoline-1-carboxamide]
9,150 nM,CC(CN1C(=O)c2ccc(Cl)cc2C1C(=O)NCc1ccccc1)c1ccc(Cl)cc1 (centres unmarked) [N-benzyl-6-chloro-2-[2-(4-chlorophenyl)propyl]-3-oxoisoindoline-1-carboxamide]
10,550 nM,C[C@H](c1ccccc1)N1C(=O)c2ccc(Cl)cc2C1C(=O)NCc1ccccc1 (stereo partly drawn) [N-benzyl-6-chloro-3-oxo-2-[(1R)-1-phenylethyl]isoindoline-1-carboxamide]
11,340 nM,CCCCN(Cc1ccccc1)C(=O)C1c2ccccc2C(=O)N1CCc1ccc(Cl)cc1 (centres unmarked) [N-benzyl-N-butyl-2-[2-(4-chlorophenyl)ethyl]-3-oxoisoindoline-1-carboxamide]
12,530 nM,CCCCNC(=O)C1c2ccccc2C(=O)N1CC(C)(C)c1ccc(Cl)cc1 (centres unmarked) [N-butyl-2-[2-(4-chlorophenyl)-2-methyl-propyl]-3-oxo-1H-isoindole-1-carboxamide]
13,730 nM,CCCCNC(=O)C1c2ccccc2C(=O)N1CC(C)c1ccc(Cl)cc1 (centres unmarked) [N-butyl-2-[2-(4-chlorophenyl)propyl]-3-oxoisoindoline-1-carboxamide]
